The values that follow come from paper PMC6470589, “Contribution of Molecular Structure to Self-Assembling and Biological Properties of Bifunctional Lipid-Like 4-(N-Alkylpyridinium)-1,4-Dihydropyridines” (Pharmaceutics, 2019).

Details of data set [1]: method as in PMID 26042808. The note with it: cited from earlier work.
The subject of data set [2] is DPPC (1,2-dipalmitoyl-sn-glycero-3-phosphocholine) vesicles with DPH probe. Briefly: Phospholipid binding assay (quenching of DPH fluorescence). Particulars: DPPC 2 × 10^−5 M, DPH 5 × 10^−6 M, 1,4-DHP 5 × 10^−5 M. As to the method: Binding studies of the 4-(N-alkylpyridinium)-1,4-DHP derivatives 1–11 with phospholipid were carried out in Tris-buffered saline (TBS) buffer (10 mM of Tris, 150 mM of NaCl, pH 7.4) by a fluorescence probe technique using a modified protocol described by Ma et al.. Briefly, 1,2-dipalmitoyl-sn-glycero-3-phosphocholine (DPPC) vesicles dispersed in TBS buffer were prepared by sonication of the lipid solution using a probe sonifier for 30 min. The concentration of DPPC stock solution was 6 × 10^−5 M; the concentration of the stock solutions of the 4-(N-alkylpyridinium)-1,4-DHP derivatives were 1.5 × 10^−4 M.
To characterise the hydrophobic interaction between the 1,4-DHP and phospholipids, 1,6-diphenyl-1,3,5-hexatriene (DPH) was used as a fluorescence probe. […]
Mixtures containing 40 µL of DPPC stock solution (6 × 10^−5 M) and 40 µL of DPH diluted stock solution (15 × 10^−6 M) were incubated at 50 °C for 0.5 h in the dark; then, an aliquot of 4-(N-alkylpyridinium)-1,4-DHP derivatives was added with the following incubation at 50 °C for 0.5 h in the dark, after which samples were cooled to room temperature and the fluorescence intensity was measured by a Tecan multiplate reader Infinite1000 (Tecan Austria GmbH, Salzburg, Austria). […]

As for `CCCCCCCCCCCC[n+]1cccc(C2C(C(=O)OCC)=C(C)NC(C)=C2C(=O)OCC)c1` [Compound 3], in data set [1], the “Blood–brain barrier crossing” value is listed as “crossed the blood–brain barrier”. For the same compound, in data set [2], the “Quenching of the fluorescence of the DPH-DPPC system” value was “lowest relative fluorescence intensity”.
